Tests used:
Hepatotoxicity [1] = tested on: Hepatotoxicity;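 as to HepSE Combined Scores: combined hepatic side effect score as listed in the training data of the Drug Induced Liver Injury Prediction System (DILIps)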;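 as to HepSE elevated liver function tests: hepatic side effect score for raised liver function tests, as recorded in the DILIps training set used for predicting drug-induced liver injury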; as to HepSE hepatic failure: call rule not given here;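 as to HepSE hepatic necrosis: score of hepatic side effects for hepatic necrosis, drawn from the training data of DILIps, a prediction system for drug-induced liver injury; call rule not given here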; as to HepSE liver disease: call rule not given here;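 as to HepSE liver fatty: hepatic side effect score for fatty liver, taken from the DILIps training set for predicting drug-induced liver injury; call rule not given here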;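 as to HepSE liver function tests abnormal: hepatic side effect score taken from the DILIps (drug-induced liver injury prediction system) training data, here covering abnormal liver function test findings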
Hepatotoxicity [2] = tested on: Hepatotoxicity; remark: listed apart in the source;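 as to HepSE Combined Scores: combined hepatic side effect score as listed in the training data of the Drug Induced Liver Injury Prediction System (DILIps)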;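 as to HepSE elevated liver function tests: hepatic side effect score for raised liver function tests, as recorded in the DILIps training set used for predicting drug-induced liver injury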; as to HepSE hepatic failure: call rule not given here;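 as to HepSE hepatic necrosis: score of hepatic side effects for hepatic necrosis, drawn from the training data of DILIps, a prediction system for drug-induced liver injury; call rule not given here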; as to HepSE liver disease: call rule not given here;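 as to HepSE liver fatty: hepatic side effect score for fatty liver, taken from the DILIps training set for predicting drug-induced liver injury; call rule not given here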;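 as to HepSE liver function tests abnormal: hepatic side effect score taken from the DILIps (drug-induced liver injury prediction system) training data, here covering abnormal liver function test findings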
Hepatotoxicity [3] = tested on: Hepatotoxicity; remark: listed apart in the source;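 as to HepSE Combined Scores: combined hepatic side effect score as listed in the training data of the Drug Induced Liver Injury Prediction System (DILIps)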;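 as to HepSE elevated liver function tests: hepatic side effect score for raised liver function tests, as recorded in the DILIps training set used for predicting drug-induced liver injury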; as to HepSE hepatic failure: call rule not given here;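 as to HepSE hepatic necrosis: score of hepatic side effects for hepatic necrosis, drawn from the training data of DILIps, a prediction system for drug-induced liver injury; call rule not given here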; as to HepSE liver disease: call rule not given here;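 as to HepSE liver fatty: hepatic side effect score for fatty liver, taken from the DILIps training set for predicting drug-induced liver injury; call rule not given here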;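 as to HepSE liver function tests abnormal: hepatic side effect score taken from the DILIps (drug-induced liver injury prediction system) training data, here covering abnormal liver function test findings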
Hepatotoxicity [4] = tested on: Hepatotoxicity; remark: listed apart in the source;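 as to HepSE Combined Scores: combined hepatic side effect score as listed in the training data of the Drug Induced Liver Injury Prediction System (DILIps)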;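 as to HepSE elevated liver function tests: hepatic side effect score for raised liver function tests, as recorded in the DILIps training set used for predicting drug-induced liver injury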; as to HepSE hepatic failure: call rule not given here;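 as to HepSE hepatic necrosis: score of hepatic side effects for hepatic necrosis, drawn from the training data of DILIps, a prediction system for drug-induced liver injury; call rule not given here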; as to HepSE liver disease: call rule not given here;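 as to HepSE liver fatty: hepatic side effect score for fatty liver, taken from the DILIps training set for predicting drug-induced liver injury; call rule not given here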
Hepatotoxicity [5] = tested on: Hepatotoxicity; remark: listed apart in the source; as to HepSE hepatic failure: call rule not given here; as to HepSE liver disease: call rule not given here
Hepatotoxicity [6] = tested on: Hepatotoxicity; remark: listed apart in the source; as to HepSE hepatic failure: call rule not given here; as to HepSE liver disease: call rule not given here
Hepatotoxicity [7] = tested on: Hepatotoxicity; remark: listed apart in the source
Hepatotoxicity [8] = tested on: Hepatotoxicity; remark: listed apart in the source
Hepatotoxicity [9] = tested on: Hepatotoxicity; remark: listed apart in the source
Hepatotoxicity [10] = tested on: Hepatotoxicity; remark: listed apart in the source
Hepatotoxicity [11] = tested on: Hepatotoxicity; remark: listed apart in the source
Hepatotoxicity [12] = tested on: Hepatotoxicity; remark: listed apart in the source
Hepatotoxicity [13] = tested on: Hepatotoxicity; remark: listed apart in the source
Hepatotoxicity [14] = tested on: Hepatotoxicity; remark: listed apart in the source

## COc1cc2c(cc1OC)[C@@H](Cc1cc(OC)c(OC)c(OC)c1)[N+](C)(CCCOC(=O)CC/C=C/CCC(=O)OCCC[N+]1(C)CCc3cc(OC)c(OC)cc3[C@H]1Cc1cc(OC)c(OC)c(OC)c1)CC2 (stereo partly drawn)
Hepatotoxicity [1]
  HepSE_Combined Scores: 0
Hepatotoxicity [2]
  HepSE_hepatic failure: 0
Hepatotoxicity [3]
  HepSE_liver fatty: 0
Hepatotoxicity [4]
  HepSE_hepatic necrosis: 0
Hepatotoxicity [5]
  HepSE_hepatitis: 0
Hepatotoxicity [6]
  HepSE_elevated liver function tests: 0
Hepatotoxicity [7]
  HepSE_liver disease: 0
Hepatotoxicity [8]
  HepSE_cholelithiasis: 0
Hepatotoxicity [9]
  HepSE_bilirubinemia: 0
Hepatotoxicity [10]
  HepSE_liver function tests abnormal: 0
Hepatotoxicity [11]
  HepSE_jaundice: 0
Hepatotoxicity [12]
  HepSE_hepatomegaly: 0
Hepatotoxicity [13]
  HepSE_cirrhosis: 0
Hepatotoxicity [14]
  HepSE_cholecystitis: 0

## C[C@@H](NCCCc1cccc(C(F)(F)F)c1)c1cccc2ccccc12
Hepatotoxicity [1]
  HepSE_Combined Scores: 0
Hepatotoxicity [2]
  HepSE_hepatic failure: 0
Hepatotoxicity [3]
  HepSE_liver fatty: 0
Hepatotoxicity [4]
  HepSE_hepatic necrosis: 0
Hepatotoxicity [5]
  HepSE_hepatitis: 0
Hepatotoxicity [6]
  HepSE_elevated liver function tests: 0
Hepatotoxicity [7]
  HepSE_liver disease: 0
Hepatotoxicity [8]
  HepSE_cholelithiasis: 0
Hepatotoxicity [9]
  HepSE_bilirubinemia: 0
Hepatotoxicity [10]
  HepSE_liver function tests abnormal: 0
Hepatotoxicity [11]
  HepSE_jaundice: 0
Hepatotoxicity [12]
  HepSE_hepatomegaly: 0
Hepatotoxicity [13]
  HepSE_cirrhosis: 0
Hepatotoxicity [14]
  HepSE_cholecystitis: 0

## Nc1ncnc2c1ncn2[C@@H]1O[C@H](COP(=O)(S)S)[C@@H](O)[C@H]1O
Hepatotoxicity [1]
  HepSE_Combined Scores: 6
Hepatotoxicity [2]
  HepSE_hepatic failure: 1
Hepatotoxicity [3]
  HepSE_liver fatty: 0
Hepatotoxicity [4]
  HepSE_hepatic necrosis: 1
Hepatotoxicity [5]
  HepSE_hepatitis: 1
Hepatotoxicity [6]
  HepSE_elevated liver function tests: 1
Hepatotoxicity [7]
  HepSE_liver disease: 0
Hepatotoxicity [8]
  HepSE_cholelithiasis: 0
Hepatotoxicity [9]
  HepSE_bilirubinemia: 0
Hepatotoxicity [10]
  HepSE_liver function tests abnormal: 0
Hepatotoxicity [11]
  HepSE_jaundice: 1
Hepatotoxicity [12]
  HepSE_hepatomegaly: 0
Hepatotoxicity [13]
  HepSE_cirrhosis: 1
Hepatotoxicity [14]
  HepSE_cholecystitis: 0

## OC[C@H]1O[C@@H](O)[C@@H](F)[C@@H](O)[C@@H]1O
Hepatotoxicity [1]
  HepSE_Combined Scores: 0
Hepatotoxicity [2]
  HepSE_hepatic failure: 0
Hepatotoxicity [3]
  HepSE_liver fatty: 0
Hepatotoxicity [4]
  HepSE_hepatic necrosis: 0
Hepatotoxicity [5]
  HepSE_hepatitis: 0
Hepatotoxicity [6]
  HepSE_elevated liver function tests: 0
Hepatotoxicity [7]
  HepSE_liver disease: 0
Hepatotoxicity [8]
  HepSE_cholelithiasis: 0
Hepatotoxicity [9]
  HepSE_bilirubinemia: 0
Hepatotoxicity [10]
  HepSE_liver function tests abnormal: 0
Hepatotoxicity [11]
  HepSE_jaundice: 0
Hepatotoxicity [12]
  HepSE_hepatomegaly: 0
Hepatotoxicity [13]
  HepSE_cirrhosis: 0
Hepatotoxicity [14]
  HepSE_cholecystitis: 0

## CC(C)CN(C[C@@H](O)[C@H](Cc1ccccc1)NC(=O)O[C@H]1CO[C@H]2OCC[C@H]21)S(=O)(=O)c1ccc(N)cc1
Hepatotoxicity [1]
  HepSE_Combined Scores: 5
Hepatotoxicity [2]
  HepSE_hepatic failure: 1
Hepatotoxicity [3]
  HepSE_liver fatty: 0
Hepatotoxicity [4]
  HepSE_hepatic necrosis: 0
Hepatotoxicity [5]
  HepSE_hepatitis: 1
Hepatotoxicity [6]
  HepSE_elevated liver function tests: 0
Hepatotoxicity [7]
  HepSE_liver disease: 0
Hepatotoxicity [8]
  HepSE_cholelithiasis: 0
Hepatotoxicity [9]
  HepSE_bilirubinemia: 1
Hepatotoxicity [10]
  HepSE_liver function tests abnormal: 0
Hepatotoxicity [11]
  HepSE_jaundice: 1
Hepatotoxicity [12]
  HepSE_hepatomegaly: 0
Hepatotoxicity [13]
  HepSE_cirrhosis: 1
Hepatotoxicity [14]
  HepSE_cholecystitis: 0

## COCCCOc1cc(C[C@@H](C[C@H](N)[C@@H](O)C[C@H](C(=O)NCC(C)(C)C(N)=O)C(C)C)C(C)C)ccc1OC
Hepatotoxicity [1]
  HepSE_Combined Scores: 0
Hepatotoxicity [2]
  HepSE_hepatic failure: 0
Hepatotoxicity [3]
  HepSE_liver fatty: 0
Hepatotoxicity [4]
  HepSE_hepatic necrosis: 0
Hepatotoxicity [5]
  HepSE_hepatitis: 0
Hepatotoxicity [6]
  HepSE_elevated liver function tests: 0
Hepatotoxicity [7]
  HepSE_liver disease: 0
Hepatotoxicity [8]
  HepSE_cholelithiasis: 0
Hepatotoxicity [9]
  HepSE_bilirubinemia: 0
Hepatotoxicity [10]
  HepSE_liver function tests abnormal: 0
Hepatotoxicity [11]
  HepSE_jaundice: 0
Hepatotoxicity [12]
  HepSE_hepatomegaly: 0
Hepatotoxicity [13]
  HepSE_cirrhosis: 0
Hepatotoxicity [14]
  HepSE_cholecystitis: 0

## CN1CC(=O)N2[C@H](c3ccc4c(c3)OCO4)c3[nH]c4ccccc4c3C[C@@H]2C1=O
Hepatotoxicity [1]
  HepSE_Combined Scores: 1
Hepatotoxicity [2]
  HepSE_hepatic failure: 0
Hepatotoxicity [3]
  HepSE_liver fatty: 0
Hepatotoxicity [4]
  HepSE_hepatic necrosis: 0
Hepatotoxicity [5]
  HepSE_hepatitis: 0
Hepatotoxicity [6]
  HepSE_elevated liver function tests: 0
Hepatotoxicity [7]
  HepSE_liver disease: 0
Hepatotoxicity [8]
  HepSE_cholelithiasis: 0
Hepatotoxicity [9]
  HepSE_bilirubinemia: 0
Hepatotoxicity [10]
  HepSE_liver function tests abnormal: 1
Hepatotoxicity [11]
  HepSE_jaundice: 0
Hepatotoxicity [12]
  HepSE_hepatomegaly: 0
Hepatotoxicity [13]
  HepSE_cirrhosis: 0
Hepatotoxicity [14]
  HepSE_cholecystitis: 0

— ChEMBL document CHEMBL1909294, “Translating clinical findings into knowledge in drug safety evaluation--drug induced liver injury prediction system (DILIps)” (PLoS Comput Biol, 2011)
